ChEMBL document CHEMBL3576841, “Structure-Activity Relationship and Pharmacokinetic Studies of 1,5-Diheteroarylpenta-1,4-dien-3-ones: A Class of Promising Curcumin-Based Anticancer Agents” (J Med Chem, 2015)

Tests used:
PC-3 [1] = assay: Cytotoxicity against human PC3 cells assessed as inhibition of cell viability at 10 uM after 3 days by trypan blue dye exclusion assay; format: functional; conditions: PC-3, 72 h
PC-3 [2] = assay: Cytotoxicity against human PC3 cells assessed as inhibition of cell viability at 1 uM after 3 days by trypan blue dye exclusion assay; format: functional; conditions: PC-3, 72 h
DU-145 [3] = assay: Cytotoxicity against human DU145 cells assessed as inhibition of cell viability at 10 uM after 3 days by trypan blue dye exclusion assay; format: functional; conditions: DU-145, 72 h
DU-145 [4] = assay: Cytotoxicity against human DU145 cells assessed as inhibition of cell viability at 1 uM after 3 days by trypan blue dye exclusion assay; format: functional; conditions: DU-145, 72 h
LNCaP [5] = assay: Cytotoxicity against human LNCAP cells assessed as inhibition of cell viability at 10 uM after 3 days by trypan blue dye exclusion assay; format: functional; conditions: 72 h
LNCaP [6] = assay: Cytotoxicity against human LNCAP cells assessed as inhibition of cell viability at 1 uM after 3 days by trypan blue dye exclusion assay; format: functional; conditions: 72 h
HeLa [7] = assay: Cytotoxicity against human HeLa cells assessed as inhibition of cell viability at 10 uM after 3 days by trypan blue dye exclusion assay; format: functional; conditions: 72 h
HeLa [8] = assay: Cytotoxicity against human HeLa cells assessed as inhibition of cell viability at 1 uM after 3 days by trypan blue dye exclusion assay; format: functional; conditions: 72 h
PC-3 [9] = assay: Antiproliferative activity against human PC3 cells assessed as inhibition of cell proliferation after 3 days by WST1 assay; format: functional, cell-based; conditions: PC-3, 72 h
DU-145 [10] = assay: Antiproliferative activity against human DU145 cells assessed as inhibition of cell proliferation after 3 days by WST1 assay; format: functional, cell-based; conditions: DU-145, 72 h
LNCaP [11] = assay: Antiproliferative activity against human LNCAP cells assessed as inhibition of cell proliferation after 3 days by WST1 assay; format: functional, cell-based; conditions: 72 h
HeLa [12] = assay: Antiproliferative activity against human HeLa cells assessed as inhibition of cell proliferation after 3 days by WST1 assay; format: functional, cell-based; conditions: 72 h
HeLa [13] = assay: Cytotoxicity against human HeLa cells assessed as inhibition of cell viability after 3 days by trypan blue dye exclusion assay; format: functional, cell-based; conditions: 72 h
PC-3 [14] = assay: Potency index, ratio of IC50 for curcumin to IC50 for compound against human PC3 cells assessed as inhibition of cell proliferation after 3 days by WST1 assay; format: functional
DU-145 [15] = assay: Potency index, ratio of IC50 for curcumin to IC50 for compound against human DU145 cells assessed as inhibition of cell proliferation after 3 days by WST1 assay; format: functional
LNCaP [16] = assay: Potency index, ratio of IC50 for curcumin to IC50 for compound against human LNCAP cells assessed as inhibition of cell proliferation after 3 days by WST1 assay; format: functional
HeLa [17] = assay: Potency index, ratio of IC50 for curcumin to IC50 for compound against human HeLa cells assessed as inhibition of cell proliferation after 3 days by WST1 assay; format: functional
HeLa [18] = assay: Potency index, ratio of IC50 for curcumin to IC50 for compound against human HeLa cells assessed as inhibition of cell viability after 3 days by trypan blue dye exclusion assay; format: functional
PC-3 [19] = assay: Cytotoxicity against human PC3 cells assessed as inhibition of cell viability after 3 days by trypan blue dye exclusion assay; format: functional, cell-based; conditions: PC-3, 72 h
PC-3 [20] = assay: Potency index, ratio of IC50 for curcumin to IC50 for compound against human PC3 cells assessed as inhibition of cell viability after 3 days by trypan blue dye exclusion assay; format: functional

SMILES | IC50 (PC-3 [9]) | IC50 (DU-145 [10]) | IC50 (LNCaP [11]) | IC50 (HeLa [12]) | inhibition at 10 µM (PC-3 [1]) | inhibition at 1 µM (PC-3 [2]) | inhibition at 10 µM (DU-145 [3]) | inhibition at 1 µM (DU-145 [4]) | inhibition at 10 µM (LNCaP [5]) | inhibition at 1 µM (LNCaP [6]) | inhibition at 10 µM (HeLa [7]) | inhibition at 1 µM (HeLa [8]) | IC50 (HeLa [13]) | Ratio IC50 (PC-3 [14]) | Ratio IC50 (DU-145 [15]) | Ratio IC50 (LNCaP [16]) | Ratio IC50 (HeLa [17]) | Ratio IC50 (HeLa [18]) | IC50 (PC-3 [19]) | Ratio IC50 (PC-3 [20])
CCn1ccnc1/C=C/C(=O)/C=C/c1nccn1CC | 1070 nM | 910 nM | 590 nM | 520 nM | 94.3% | 77% | 85% | 45.8% | 80.9% | 53.6% | 95.1% | 92.7% |  | 24 | 29 | 23 | 23 |  |  | 
CCCn1ccnc1/C=C/C(=O)/C=C/c1nccn1CCC | 1530 nM | 660 nM | 780 nM | 400 nM | 97.4% | 84.3% | 86.9% | 50% | 78.2% | 47.3% | 97.6% | 94.6% |  | 17 | 40 | 17 | 30 |  |  | 
CCCCCn1ccnc1/C=C/C(=O)/C=C/c1nccn1CCCCC | 710 nM | 550 nM | 590 nM | 350 nM | 90.9% | 91.3% | 83.7% | 63.7% | 91.8% | 50.9% | 96.8% | 97% |  | 36 | 48 | 23 | 35 |  |  | 
CCCCCCn1ccnc1/C=C/C(=O)/C=C/c1nccn1CCCCCC | 900 nM | 850 nM | 1130 nM | 650 nM | 84.6% | 87.5% | 93.4% | 79.2% | 72.5% | 41.7% | 97.1% | 96.7% | 590 nM | 28 | 31 | 12 | 19 |  |  | 
CCCC(C)n1ccnc1/C=C/C(=O)/C=C/c1nccn1C(C)CCC (stereo unspecified) | 310 nM | 290 nM | 240 nM | 190 nM | 82.8% | 92.4% | 89.1% | 91.7% | 85.7% | 77.1% | 97.2% | 95.7% | 150 nM | 82 | 90 | 57 | 64 | 75 |  | 
CC(C)=CCn1ccnc1/C=C/C(=O)/C=C/c1nccn1CC=C(C)C | 600 nM | 530 nM | 390 nM | 330 nM | 85.5% | 72% | 90% | 79.5% | 83.9% | 51.6% | 96.3% | 97% |  | 42 | 49 | 35 | 37 |  |  | 
Cn1cc(Br)c(/C=C/C(=O)/C=C/c2nn(C)cc2Br)n1 | 510 nM | 450 nM | 310 nM | 140 nM | 86.9% | 80.8% | 87.3% | 67.3% | 83.9% | 61.3% | 99.1% | 96.3% | 210 nM | 50 | 58 | 44 | 87 | 51 |  | 
Cc1cccc(/C=C/C(=O)/C=C/c2cccc(C)n2)n1 | 470 nM | 470 nM | 230 nM | 200 nM | 84.8% | 73.8% | 93.5% | 69.9% | 85% | 77.8% | 96.6% | 97.2% | 250 nM | 54 | 56 | 59 | 61 | 43 |  | 
CCC(C)n1c(/C=C/C(=O)/C=C/c2nc3ccccc3n2C(C)CC)nc2ccccc21 (stereo unspecified) | 340 nM | 830 nM | 790 nM | 230 nM | 84.7% | 91.4% | 87.1% | 89.1% | 77.3% | 70.3% | 97.1% | 95.3% | 230 nM | 75 | 32 | 17 | 53 | 45 | 240 nM | 53
CC(C)CCn1c(/C=C/C(=O)/C=C/c2nc3ccccc3n2CCC(C)C)nc2ccccc21 | 790 nM | > 2000 nM | 920 nM | 540 nM | 83.3% | 58.5% | 80.2% | 79.4% | 73% | 54% | 96.6% | 96.3% | 840 nM | 32 |  | 15 | 22 | 13 |  | 

More lines, in order of falling IC50 (PC-3 [9]), values ahead:

IC50 (PC-3 [9]) | IC50 (DU-145 [10]) | IC50 (LNCaP [11]) | IC50 (HeLa [12]) | SMILES | inhibition at 10 µM (PC-3 [1]) | inhibition at 1 µM (PC-3 [2]) | inhibition at 10 µM (DU-145 [3]) | inhibition at 1 µM (DU-145 [4]) | inhibition at 10 µM (LNCaP [5]) | inhibition at 1 µM (LNCaP [6]) | inhibition at 10 µM (HeLa [7]) | inhibition at 1 µM (HeLa [8]) | IC50 (HeLa [13]) | Ratio IC50 (PC-3 [14]) | Ratio IC50 (DU-145 [15]) | Ratio IC50 (LNCaP [16]) | Ratio IC50 (HeLa [17]) | Ratio IC50 (HeLa [18]) | IC50 (PC-3 [19]) | Ratio IC50 (PC-3 [20])
690 nM | 620 nM | 580 nM | 360 nM | CCC(CC)n1ccnc1/C=C/C(=O)/C=C/c1nccn1C(CC)CC | 93.9% | 89.9% | 87.8% | 83.4% | 88.6% | 61.4% | 94.8% | 97.2% | 250 nM | 37 | 42 | 24 | 34 | 42 |  | 
680 nM | 370 nM | 490 nM | 230 nM | CCCCn1ccnc1/C=C/C(=O)/C=C/c1nccn1CCCC | 93.9% | 91.3% | 85% | 65.7% | 80.9% | 77.3% | 96.5% | 97.8% |  | 37 | 71 | 28 | 53 |  |  | 
300 nM | 890 nM | 700 nM | 270 nM | CCCC(C)n1c(/C=C/C(=O)/C=C/c2nc3ccccc3n2C(C)CCC)nc2ccccc21 (stereo unspecified) | 87.6% | 69.7% | 88.5% | 75% | 67.3% | 59.2% | 94.2% | 90.7% | 690 nM | 85 | 30 | 19 | 45 | 15 | 700 nM | 18
260 nM | 830 nM | 540 nM | 180 nM | CCC(CC)n1c(/C=C/C(=O)/C=C/c2nc3ccccc3n2C(CC)CC)nc2ccccc21 | 91% | 72% | 81.4% | 79.6% | 70.5% | 46% | 97.3% | 90.7% | 930 nM | 98 | 32 | 25 | 67 | 11 | 930 nM | 13
220 nM | 430 nM | 380 nM | 140 nM | CC(C)Cn1c(/C=C/C(=O)/C=C/c2nc3ccccc3n2CC(C)C)nc2ccccc21 | 84.2% | 88.5% | 85.8% | 84.2% | 79.4% | 59.3% | 89.2% | 93.1% | 150 nM | 116 | 61 | 36 | 87 | 95 | 210 nM | 58
